In this series the test system is human ovarian cancer cisplatin-resistant cultured cell A2480CP. The series is described as follows: ^13C-NMR of excised cancer cells and femoral muscle after intravenous administration to tumour-bearing nude mice. The settings on record: for ^13C Area integrated value, Cancer cells: 300 mg/kg, caudal vein, peak areas 90 to 160 ppm, relative to 100 = first animal after 8 hours, two animals. An excerpt: Nude mice (female BALB Cnu/nu, about 8 mm in cancer diameter) were used after 3 weeks of the transplantation of 2×10^6 cells/animal of human ovarian cancer cisplatin-resistant cultured cell A2480CP to the right-side body subcutaneously. Preparation of ^13C-labeled 5-aminolevulinic acid aqueous solution:
5-Aminolevulinic acid hydrochloride in which the 5-position carbon was replaced with ^13C (Production Example 4) was used. The 5-aminolevulinic acid hydrochloride in which the 5-position carbon was replaced with ^13C was dissolved in distilled water at a ratio of 25 g/L, and the solution was neutralized to pH 7 with sodium hydroxide.
The thus neutralized solution was sterilized by immediately passing through a 0.22 μm filter and administered from the mouse caudal vein at a ratio of 12 μl per g body weight. This dose corresponds to 300 mg administration of 5-aminolevulinic acid hydrochloride per 1 kg body weight. After 2, 4 and 8 hours of the administration, mice were sacrificed and subjected to bloodletting, and then the cancer cells and femoral part were excised and packed in 10 mmφ NMR sample tubes to the same volume to measure ^13C-NMR by super-conductive NMR, JNM-A400 manufactured by JEOL, at an observation frequency of 100.50 MHz using a proton decoupling method.
After the measurement, peak areas of from 90 to 160 ppm were integrated, and relative values were calculated based on the value 100 of the first animal after 8 hours of the administration. The test was carried out using two animals for each condition.

This is an account of results in patent US7135162B2, “Agent for diagnosing and treating malignant tumors” (Cosmo Research Institute, priority 1997, dated 2006).

Several values for one entry are separate records, joined by “and”; a condition that tells them apart may be missing. Equal values may be shown once.

Turning to `Cl.N[13CH2]C(=O)CCC(=O)O` [^13C-labeled 5-aminolevulinic acid, 5-Aminolevulinic acid hydrochloride in which the 5-position carbon was replaced with ^13C], the “^13C Area integrated value, Cancer cells” value was 19 and 22 (2 hours after administration); 89 and 73 (4 hours after administration); 100 and 87 (8 hours after administration). Moreover, the “existing frequency of ^13C, cancer cells versus muscle” value (summary of Table 3, 2, 4 and 8 hours after administration) is recorded as “higher in the cancer cells than in the muscle”.
